Assay results taken from patent publication US20220364056A1, “SHORT-CHAIN FATTY ACID PENTANOATE AS ENHANCER FOR CELLULAR THERAPY AND ANTI-TUMOR THERAPY” (PHILIPPS-UNIVERSITÄT MARBURG, priority 2019, published 2022).

Columns and labels:
[1] = test system: histones H3 and H4; test: Western blot of H3Ac and H4Ac in CD8+ T cells; assay type: cell-based, murine; details: SCFAs for 3 days
Protocol: Representative histogram plots (A) and bar graphs (B) are showing the frequency of Annexin V^+ cells. Three similar experiments were performed. (C) Representative effector molecule staining of CD8^+ T cells polarized under suboptimal CTL-inducing conditions, treated with pentanoate or TSA (10 nM Sigma-Aldrich) in presence of 2-DG (1 mM, Sigma-Aldrich) or rapamycin (100 nM, Sigma-Aldrich) for 3 days. Three independent experiments were performed. (D) Western blot analysis of H3Ac and H4Ac in CD8^+ T cells treated with SCFAs for 3 days. (E) Pan-H4Ac ChIP qPCR analysis for Tbx21 promoter accessibility in pentanoate-treated CTLs. Data are from pooled chromatin of three mice. (F and G) CD8^+ T cells isolated from WT and Tbx21^−/− mice were polarized under suboptimal CTL-inducing conditions in presence of increasing pentanoate concentrations. Representative contour plots (F) and bar graphs (G) show the frequency of IFN-γ+ and IL-17A^+ cells. Two similar experiments were performed.

[2] = test system: human CD8+ T lymphocytes; test: human CD8+ T lymphocytes differentiated into CTLs, flow cytometry; assay type: cell-based
Protocol: (A and B) CD8^+ T cells isolated from spleens and LNs were polarized under Tc17-inducing conditions and treated with pentanoate for 3 days. Representative contour plots (A) and bar graphs (B) indicate the frequency of IL-17^+ and IFN-γ+ cells. Three similar experiments were performed. (C and D) CD8^+ T cells isolated from spleens and LNs were polarized under Tc9-inducing conditions and treated with pentanoate for 3 days. Representative contour plots (C) and bar graphs (D) are showing the frequency of IL-9^+ and IFN-γ+ cells. Three similar experiments were performed. (E and F) The expression of granzyme B, IFN-γ and Eomes in pentanoate-treated human CTLs was analysed by flow cytometry. Five independent experiments were performed (E). For Eomes, mean fluorescence intensity (MFI) values are shown (F, n=3).
(A) CD8^+ T cells isolated from peripheral blood of healthy donors were differentiated into CTLs in presence or absence of indicated HDACi. Representative contour plots and dot plots indicate the frequency of TNF-α+ and IFN-γ^+ cells. Data points in the graphs represent individual donors (n=4, performed in 4 independent experiments) (B-G) Phenotyping of pentanoate-treated ROR1-specific CD8^+ CAR T cells (CARROR1 T cells). (B) Experimental setup for the functional analysis is shown. (C) The cytokine secretion (IFN-γ and TNF-α) was analysed in supernatants of pentanoate-treated CARROR1 T cells by ELISA. (D) The surface expression of CD25 was measured by flow cytometry. (E) The secretion of IL-2 was detected in supernatants of CARROR1 T cells by ELISA. (F) Proliferation of CARROR1 T cells was determined by CFSE labelling. CARROR1 T cells pre-treated with pentanoate were stained with CFSE and subsequently co-cultured with […] cells in the absence of pentanoate. CD8^+ T cells without the CAR construct were used as mock control cells. […] The percentage of lysed target cells was determined in 1 hour intervals (effector-to-target cell (E:T) ratio=2.5:1). […]

[3] = test system: B16OVA melanoma cells; test: adoptive transfer of pretreated OT-I CTLs into mice bearing s.c. B16OVA tumors; assay type: in vivo
[4] = test system: mTOR; test: phosphorylation of mTOR and S6 in murine CTLs; assay type: cell-based; details: pentanoate 2.5 mM, three days
Protocol: (A and B) CTLs were cultured in medium containing 1.0% FCS and treated with pentanoate (2.5 mM) for three days. Representative histogram plots and bar graphs indicate the phoshorylated levels of mTOR (A) and S6 ribosomal protein (B), respectively (n=3 pooled from three independent experiments). (C and D) Human CTLs were cultured in medium containing 1.0% serum and treated with indicated HDACi for three days. Representative histogram plots and bar graphs indicate the phoshorylated levels of mTOR (C) and S6 ribosomal protein (D), respectively (data points represent four individual healthy donors) (E) Measurement of extracellular acidification rate (ECAR) for in vitro generated murine CTLs cultured with or without 2.5 mM pentanoate for three days. ECAR was measured under basal conditions and in response to glucose (10 mM), oligomycin (2 μM), and 2-deoxy-glucose (2-DG, 100 mM). One of three independent experiments is shown.

[5] = test system: human CAR T cells; test: human ROR1-specific CAR T cells pretreated, then co-cultured with ROR1-expressing K562 cells; assay type: cell-based
Source text: We next investigated the impact of SCFAs on human CD8^+ T lymphocytes and CAR T cells.
(A) CD8^+ T cells isolated from peripheral blood of healthy donors were differentiated into CTLs in presence or absence of indicated HDACi. Representative contour plots and dot plots indicate the frequency of TNF-α+ and IFN-γ^+ cells. Data points in the graphs represent individual donors (n=4, performed in 4 independent experiments) (B-G) Phenotyping of pentanoate-treated ROR1-specific CD8^+ CAR T cells (CARROR1 T cells). (B) Experimental setup for the functional analysis is shown. (C) The cytokine secretion (IFN-γ and TNF-α) was analysed in supernatants of pentanoate-treated CARROR1 T cells by ELISA. (D) The surface expression of CD25 was measured by flow cytometry. (E) The secretion of IL-2 was detected in supernatants of CARROR1 T cells by ELISA. (F) Proliferation of CARROR1 T cells was determined by CFSE labelling. CARROR1 T cells pre-treated with pentanoate were stained with CFSE and subsequently co-cultured with […] cells in the absence of pentanoate. CD8^+ T cells without the CAR construct were used as mock control cells. (G) The cytolytic activity of CARROR1 T cells was examined by analysis of specific lysis following encounter with luciferase-expressing […] cells. The percentage of lysed target cells was determined in 1 hour intervals (effector-to-target cell (E:T) ratio=2.5:1). Data points shown in the graphs (C-G) represent CARROR1 T cells derived from three different donors. Following pentanoate pre-treatment, the stimulation was mediated by co-culture of CD8^+ CARROR1 T cells with ROR1-expressing K652 ([…]) cells in the absence of pentanoate.

CCCCC(=O)O [pentanoate]
acetylation of histones H3 and H4 [1]: increased acetylation
expression of granzyme B, IFN-γ and Eomes [2]: enhancing the expression
expression of TNF-α and IFN-γ ([2]; healthy donors): enhancing the expression
tumor volume and weight ([3]; OT-I CTLs pretreated three days with pentanoate, transferred day 5 after tumor injection): decreased tumor volume and weight
number of transferred cells expressing TNF-α and IFN-γ in tumors, draining LNs and spleen ([3]; day 10 after adoptive transfer, vs control OT-I CTLs): higher number
phosphorylation level of S6 ribosomal protein [4]: elevated the phosphorylation levels
phosphorylation level of mTOR [4]: elevated the phosphorylation levels
proliferation of CAR T cells ([5]; CFSE labelling, vs control CAR T cells): proliferated stronger
expression of CD25 ([5]; pretreated 4 days): upregulated
production of IFN-γ and TNF-α ([5]; pretreated 4 days, ELISA): elevated the production
secretion of IL-2 ([5]; pretreated 4 days, ELISA): upregulated
cytolytic activity ([5]; specific lysis, E:T ratio 2.5:1): superior cytolytic activity
